According to patent US5635525A, “Benzimidazole derivatives as angiotensin II receptor antagonists, pharmacticals, and treatment of hypertension therewith” (Hoechst Aktiengesellschaft, priority 1991, dated 1997):

What follows are compounds tested against angiotensin II receptor (assay: displacement of 125I- or 3H-angiotensin II from receptor preparations from various organs (liver, lung, adrenal gland, brain etc.)). Settings: "according to the abovementioned process"; which of the two binding methods is not stated.
Method: Bound and free radioligand are then separated by filtration through micro glass fiber filters (GF51, Schleicher & Schull) on a cell collector (SKATRON).
By measurement of the receptor-bund radioactivity on the filters by means of a beta spectrometer or gamma spectrometer, the degree of displacement of the radioligand from the receptor by the test compounds is determined.

| Compound | IC50 [nM] |
| --- | --- |
| 2-n-Butyl-3-[(2'-allylaminocarbonylaminosulfonylbiphenyl-4-yl)-methyl]-3H-imidazo-[4,5-b]/[5,4-b]pyridine [Example 27] | 1.1 |
| CCCCc1nc2cccc(C(=O)O)c2n1Cc1ccc2c(Cl)c(C(=O)O)sc2c1 [Example 1, 2-n-Butyl-1-[(2-carboxy-3-chlorobenzo[b]thiophen-6-yl)-methyl]-1H-benzimidazole-7-carboxylic acid] | 78 |
| CCCCc1nc2cccc(C(=O)O)c2n1Cc1ccn2c(C(=O)O)c(-c3ccccc3)nc2c1 [Example 2, 2-n-Butyl-1-[(3-carboxy-2-phenylimidazo[1,2-a]pyridin-7-yl)methyl]-1H-benzimidazole-7-carboxylic acid] | 65 |
| CCCCc1nc2cccc(C(=O)O)c2n1Cc1ccn2c(C(=O)O)c(-c3ccccc3)nc2n1 [Example 3, 2-n-Butyl-1-[(3-carboxy-2-phenylimidazo[1,2-a]pyrimidin-7-yl)methyl]-1H-benzimidazole-7-carboxylic acid] | 149 |
| CCCNC(=O)NS(=O)(=O)c1ccccc1-c1ccc(Cn2c(CC)nc3c(C)cc(C)nc32)cc1 [Example 51] | 1.8 |

Stronger by IC50, values ahead:

| IC50 [nM] | Compound |
| --- | --- |
| 0.8 | C=CCOC(=O)N(C(=O)OCC=C)S(=O)(=O)c1ccccc1-c1ccc(Cn2c(CC)nc3c(C)cc(C)nc32)cc1 [Example 15] |
| 0.74 | CCCCc1nc2cccc(C(=O)O)c2n1Cc1ccc(-c2ccccc2S(=O)(=O)NC(=O)OCC)cc1 [Example 19, 2-n-Butyl-1-[(2'-ethoxycarbonylaminosulfonylbiphenyl-4-yl)methyl]-1H-benzimidazole-7-carboxylic acid] |
| 0.48 | CCNC(=O)NS(=O)(=O)c1ccccc1-c1ccc(Cn2c(CC)nc3c(C)ccnc32)cc1 [Example 31, 2-Ethyl-3-[(2'-ethylaminocarbonylaminosulfonylbiphenyl-4-yl)methyl]-7-methyl-imidazo[4,5-b]pyridine] |
